From patent US9150505B2, “Prophylactic or therapeutic agent for diabetes or obesity” (AJINOMOTO CO., INC., priority 2010, dated 2015)

Experiments:
human CaSR = molecular target: T1, human CaSR (Homo sapiens, UniProt P41180); experiment: Assessment of CaSR agonistic activity (Ca2+ fluorescence, FLIPR, hCaSR-transfected 293E cells); format: cell-based; details: human CaSR-expressing 293E cells, 1.5 mM CaCl2 assay buffer, 3-minute change in fluorescence intensity
T1 construct: expressed in transfected cells; host or cells: 293E cells (EBNA1-expressing HEK293, ATCC No. CRL-10852), transient transfection of hCaSR/pcDNA3.1
T1 sequence (P41180 20-1078): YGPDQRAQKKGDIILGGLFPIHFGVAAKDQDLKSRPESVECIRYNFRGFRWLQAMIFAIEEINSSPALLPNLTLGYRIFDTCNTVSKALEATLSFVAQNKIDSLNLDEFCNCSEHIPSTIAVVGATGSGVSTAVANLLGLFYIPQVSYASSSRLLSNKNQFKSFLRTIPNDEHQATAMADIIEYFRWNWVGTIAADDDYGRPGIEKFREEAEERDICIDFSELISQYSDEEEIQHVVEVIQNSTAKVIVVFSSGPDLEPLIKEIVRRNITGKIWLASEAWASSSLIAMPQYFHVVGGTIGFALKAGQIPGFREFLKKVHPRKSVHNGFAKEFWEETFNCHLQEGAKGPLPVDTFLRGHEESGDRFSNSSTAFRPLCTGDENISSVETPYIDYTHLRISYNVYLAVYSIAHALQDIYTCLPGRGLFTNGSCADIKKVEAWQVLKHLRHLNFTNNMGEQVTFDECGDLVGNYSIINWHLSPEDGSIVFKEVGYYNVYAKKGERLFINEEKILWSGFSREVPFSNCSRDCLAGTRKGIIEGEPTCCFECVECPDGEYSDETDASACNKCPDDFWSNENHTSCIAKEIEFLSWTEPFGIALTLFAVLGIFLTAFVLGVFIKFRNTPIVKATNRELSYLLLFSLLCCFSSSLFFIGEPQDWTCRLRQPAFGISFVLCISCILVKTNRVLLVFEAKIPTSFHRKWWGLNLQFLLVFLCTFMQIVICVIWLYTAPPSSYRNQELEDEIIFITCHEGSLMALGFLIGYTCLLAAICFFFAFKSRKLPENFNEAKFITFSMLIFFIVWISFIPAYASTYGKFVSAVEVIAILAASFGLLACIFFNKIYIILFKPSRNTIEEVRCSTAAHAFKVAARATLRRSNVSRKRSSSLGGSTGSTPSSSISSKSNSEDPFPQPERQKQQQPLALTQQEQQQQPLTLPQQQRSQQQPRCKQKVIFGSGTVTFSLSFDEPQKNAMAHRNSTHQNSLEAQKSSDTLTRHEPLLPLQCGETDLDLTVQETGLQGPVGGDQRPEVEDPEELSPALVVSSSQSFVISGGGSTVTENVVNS
Experimental: CaSR gene was prepared according to the method described in Example 1 of WO07/55393. The resulting recombinant plasmid was used to generate human CaSR-expressing plasmid hCaSR/pcDNA3.1.
293E cells (EBNA1-expressing IIEK293 cells, ATCC No. CRL-10852) were cultured in DMEM ([…] Glucose-containing Dulbecco's modified Eagle medium, Nacalai Tesque) containing 10% bovine fetal serum in the presence of 250 μg/ml of G418. The cells were seeded on a 10 cm-diameter petri dish at 1.8×10^6 cells/15 ml, and left to stand in a CO2 incubator (5% CO2, 37° C.) for 24 hours. Thereafter, human CaSR expression plasmid hCaSR/pcDNA3.1 was transfected with transfection reagent Mirus Trans IT 293 (Takara Bio). Following static culture in a CO2 incubator for 24 hours, the cells were harvested with 10% bovine fetal serum-containing DMEM and seeded on a poly-D-lysine coat 384 well plate (Falcon) at 15,000 cells/well. Following static culture in a CO2 incubator for 24 hours, the medium was removed and the resultant was added with 50 μl/well of Ca^2+ fluorescent indicator Calcium 4 Assay Kit (Molecular Devices) dissolved in an assay buffer (146 mM NaCl, 5 mM KCl, 1 mM MgSO4, 1 mg/ml Glucose, 20 mM HEPES (PH 7.2), 1.5 mM CaCl2), and left to stand at 37° C. for an hour and then at room temperature for 30 minutes to allow intake of the indicator. The above-mentioned 384-well plate was transferred to FLIPR (Molecular Devices) and added with 12.5 μl/well of a compound dissolved in a 0.1% BSA-containing assay buffer to measure 3-minute change in the fluorescence intensity.
The difference between maximum and minimum fluorescence intensities before and after compound addition (RFU (Max−Min)) was determined by FLIPR automatic calculation. An activity rate was calculated where RFU (Max−Min) upon addition of a compound at a maximum concentration was defined 100% and RFU (Max−Min) upon addition of DMSO as a substitute for the compound at the same concentration was defined 0%. The rate was subjected to curve fitting using spreadsheet software Xfit to determine EC50 value, i.e., a compound concentration upon 50% activity rate.

NCI-H716 cells = experiment: Promotion of CCK secretion in NCI-H716 cells; format: cell-based, human
Experimental: Human appendix-derived cell line NCI-H716 (ATCC No CCL-251) was cultured in a 10% FBS-containing DMEM/HamF-12 medium at 37° C. in the presence of 5% CO2. NCI-H716 cells were seeded in a poly-D-lysine-coated 24-well plate at 600,000 cells/well and cultured for two days. Prior to sample addition, wells were washed with Hepes buffer (20 mM Hepes, 146 mM NaCl, 5 mM KCl, 1.5 mM CaCl2, 1 mM MgSO4, 5.5 mM D-glucose, 0.02% BSA, pH 7.4). 300 μl of a sample solution dissolved in the same buffer was added and incubated at 37° C. for 30 minutes. Compound 1 in Example 6 (2 mM) and Compound 2 in Example 48 (1 mM) were used as the samples. In addition, a Hepes buffer was used as a control. After collecting the supernatant, the cells were precipitated by centrifugation (5,000×g, 1 min.) to collect the supernatant thereof, which was lyophilized in Speed Vac Concentrator (SAVANT) and dissolved by addition of 60 μl of water. CCK level in the solution was determined using Enzyme immuno assay kit (EK-069-04; PHENOIX PHARMACEUTICALS).

EC50 (human CaSR): 3 nM
Compound: N[C@@H](CNC(=O)Nc1cc(Cl)cc(S(=O)(=O)O)c1O)C(=O)O [Example 6, (2S)-2-amino-3-{[(5-chloro-2-hydroxy-3-sulfophenyl)carbamoyl]amino}propanoic acid]
Relative secretion volumes (CCK) (NCI-H716 cells; 2 mM, 30 minutes at 37° C., buffer assumed to be 1.0): 4.89
effect of promoting CCK secretion (NCI-H716 cells; result in words): confirmed to have an effect of promoting CCK secretion
